Laboratory results: paper PMC6934184, “Selective DNA-PKcs inhibition extends the therapeutic index of localized radiotherapy and chemotherapy” (The Journal of Clinical Investigation, 2019)

Biological target: T1, CDK14 (PFTK1)/cyclin Y (Homo sapiens, UniProt O94921)
T1 construct: purchased Thermo Fisher Scientific (Life Technologies) SelectScreen
Test: SelectScreen LanthaScreen
Assay type: binding
Conditions: 1 µM
Method in brief: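 NU5455 was profiled across the SelectScreen Broad panel of kinase activity and binding assays. Z'LYTE reactions such as CSF1R ran at apparent Km ATP, while the Adapta CAMK1 assay used ATP listed as 10. Values are given as percent.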

T1 sequence (O94921 whole entry): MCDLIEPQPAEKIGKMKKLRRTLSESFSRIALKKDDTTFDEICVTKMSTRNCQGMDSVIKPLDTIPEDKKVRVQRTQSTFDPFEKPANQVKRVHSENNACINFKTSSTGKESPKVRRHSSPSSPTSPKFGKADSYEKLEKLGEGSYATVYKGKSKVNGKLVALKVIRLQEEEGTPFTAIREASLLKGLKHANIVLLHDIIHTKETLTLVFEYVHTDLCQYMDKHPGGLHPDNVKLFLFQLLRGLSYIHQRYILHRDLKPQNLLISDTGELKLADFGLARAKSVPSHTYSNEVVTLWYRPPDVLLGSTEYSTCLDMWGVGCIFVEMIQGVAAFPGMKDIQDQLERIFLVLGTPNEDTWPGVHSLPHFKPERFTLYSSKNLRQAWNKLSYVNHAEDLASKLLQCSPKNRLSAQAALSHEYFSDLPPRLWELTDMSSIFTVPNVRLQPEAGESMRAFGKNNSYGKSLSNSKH
T1 sequence (Q8ND76 whole entry partner): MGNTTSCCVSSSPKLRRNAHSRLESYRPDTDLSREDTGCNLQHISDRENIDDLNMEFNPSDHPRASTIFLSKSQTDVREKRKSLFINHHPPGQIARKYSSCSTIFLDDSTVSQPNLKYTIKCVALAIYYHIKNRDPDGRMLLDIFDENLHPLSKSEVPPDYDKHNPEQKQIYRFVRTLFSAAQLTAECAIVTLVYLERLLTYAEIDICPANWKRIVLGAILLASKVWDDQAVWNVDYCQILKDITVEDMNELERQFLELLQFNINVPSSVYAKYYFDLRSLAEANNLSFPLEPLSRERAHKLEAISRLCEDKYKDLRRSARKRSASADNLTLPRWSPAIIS

## CN(C(=O)CN1CCOCC1)c1ccc2sc3c(-c4cccc5c(=O)cc(N6CC7CCC(C6)O7)oc45)cccc3c2c1 [NU5455]
  % displacement: 5.1%
